# Measurements as given in patent publication US20240382487A1, “NOVEL COPI/ARF1-LIPOLYSIS PATHWAY INHIBITOR AND COMPOUND FOR ERADICATING CANCER STEM CELLS AND INDUCING DAMP-MEDIATED ANTI-TUMOR IMMUNE RESPONSE” (FUDAN UNIVERSITY, priority 2020, published 2024).
# Like-named read-outs stand apart in the source and are kept apart here.
# How the values were obtained:
# [1] = tested on: lung cancer cells H460; experiment: In vitro cell line screening, H460; assay type: cell-based
# Description: In different tumor cytotoxicity experiments in vitro (FIG. 2-FIG. 7), including colorectal cancer cell lines HT29 and LoVo cells, liver cancer cell Huh7, lung cancer cells H460 and A549, the arf1 inhibitor could all inhibit tumor cell growth (FIG. 2-FIG. 6), and there was a dose-dependent manner (FIG. 7).
# [2] = tested on: CT-26 colon cancer; experiment: Vaccination model, drug-treated CT-26 cells in BALB/c mice; assay type: in vivo; parameters: tumor size, left side with drug treatment / tumors on right side after vaccination on left side: unit not given here; settings: CT-26, BALB/c mice; for tumor size, left side with drug treatment: cells treated with 10 μM Du 102; for tumors on right side after vaccination on left side: untreated cells re-challenge
# [3] = tested on: 4T1 breast carcinoma; experiment: Drug-treated 4T1 cells in athymic nude mice; assay type: in vivo; parameters: unit not given here; settings: cells treated with 10 μM Du 102
# Method: The immunogenicity of the reagents can be tested in mouse vaccination models (Obeid et al., 2007; Sagiv barfi et al., 2018). One flank of the mouse was injected with drug treated tumor cells, followed one week later by a second injection of syngeneic tumor cells. We tested the vaccine efficacy in CT-26 colon cancer, B16-F10 melanoma, and 4T1 breast cancer treated with DMSO or du102.
# Cells will be treated with 10 μM Du 102 or DMSO treated CT26, 4T1 and B16-F10 tumor cells (5×10^5\1×10^5 and 5×10^5, respectively) were subcutaneously inoculated into 6-week-old female mice. After 7 days, equal amounts of corresponding tumor cells were seeded to the right side. Tumor cell lines were mixed with Matrigel (GIBCO, cat s̆ 354234) or resuspended in PBS and injected subcutaneously or intradermally.
# [4] = tested on: IL-1β; experiment: IL-1β assay, CD11c+ DCs co-cultured with treated CT26 cells; assay type: cell-based; settings: CT-26 colon cancer model, BALB/c mice; co-culture 2 days
# Method: (§1) For IL-1 β Assay: seven days after CT26 cell lysate injection. CD11c+DCs were isolated from injected BALB/c mice and co cultured with CT26 cells treated with DMSO or du102. After 2 days, […] was measured in harvested cells (Table 11). For the IFN-y assay: CD11c^+ DC and CD8^+ T cells were isolated from injected BALB/c mice 7 days after CT26 cell lysate injection and co cultured with CT26 cells treated with DMSO or du102. After 2 days. IFN-y was measured in harvested cells (table 11).
# [5] = tested on: INFγ; experiment: IFN-γ assay, CD11c+ DC and CD8+ T cells co-cultured with treated CT26 cells; assay type: cell-based; settings: CT-26 colon cancer model, BALB/c mice; co-culture 2 days
# Method: as §1
# [6] = tested on: liver tumors in MYC-ON mice; experiment: MYC-ON liver tumor model; assay type: in vivo
# Description: We used the Tet system to generate transgenic mice conditionally expressing the myc pro-oncogene in hepatocytes, […] myc/lap TTA (lt2-myc) (shachaf et al., 2004). We crossed tre-myc mice with a transgenic line, lap TTA. in which the liver activator protein (LAP) promoter drives the expression of tetracycline trans-activator protein (TTA) in hepatocytes. We confirmed this by discontinuing the feeding of doxycycline (myc-ON) activated myc transgene expression in 3-week-old mice. Subsequently. all transgenic mice overexpressing myc succumbed to liver tumors with a mean latency to tumor onset of 12 weeks, as previously reported (shachaf et al., 2004). In this lap TTA/tet-off myc conditional transgenic mouse model, myc overexpression in adult mice reproducibly induces liver cancer, similar to hepatocellular carcinoma and/or hepatoblastoma. The transgenic tumor invades the entire liver locally and is frequently associated with malignant peritoneal effusions that spread to the thoracic cavity by metastasis and invade the lung parenchyma.
# For the mouse liver tumor model, mating cages and weaning cages were administrated by a grain based rodent diet (Bio-Serv. Cat #14-727-450) containing 200 mg/kg doxycycline, and the mice were induced tumors at 6 weeks of age, by changing to a normal diet. Mice were divided into three groups, control, Du 101 treated and du102 treated. The control group was given 100 by gavage using a feeding tube 100 μl/10 g body weight (BW) 20% DMSO+80% corn oil. Du 101 treated groups were treated with 25 mg/ml Du 101. The stock solution was diluted 1:4 with corn oil to make the working solution. Dul02 treatment groups were treated with 25 mg/ml du102 stock solution diluted 1:4 with corn oil to make working solutions. The mixed working solution was administered to mice by gavage using a feeding tube. Starting from the second week of myc-0n, 5 injections per week ([…]) were given for 4 weeks, mice were monitored every 2 days, and 10 weeks later mice were euthanized and analyzed for tumor growth.
# For the myc-on liver tumor model, antibodies were i.p. Mg/kg) was injected once a week for 5 consecutive weeks, the first Doxycycline was discontinued weekly after injection. Antibodies used to treat mice were as follows: anti-CD4 (clone GK1.5, BioXcell, Cat #BE0003-1), anti-CD8 a (clone 2.43, BioXcell, Cat #BE0061) Or […] rat IgG (bioxcell, cat #be0094) isotype control antibody. From the second week of myc-on initiation lasted for 4 weeks, Du 102 and DMSO were administered by gavage needle as described above, mice were monitored every 2 days, and 10 weeks later mice were euthanized and analyzed for tumor growth.
# For the myc-on liver tumor model, antibodies were i.p. Injection once a week for 5 weeks, and doxycycline was discontinued weekly after the first injection. Antibodies used to treat mice were as follows: 100 ug/mouse Armenian hamster anti mouse PD1 (J43, bioxcell, cat #be0033-2) and 100 ug/mouse Armenian hamster isotype IgG (bioxcell. cat #bp0091) was used as controls. For 4 weeks from the second week of myc-on, Du 102 and DMSO were administered by gavage needle as described above, mice were monitored every 2 days. and 10 weeks later mice were euthanized and analyzed for tumor growth. Coadministration of anti-PD-1 antibodies may allow the use of lower, less toxic doses of du102, thus avoiding known side effects.
# [7] = tested on: T cell activation markers; experiment: T cell activation markers, 4T1 breast carcinoma in BALB/c mice; assay type: in vivo; settings: DMSO 1.0
# Description: Example 10. Du 102 Treatment Induces the Expression of T Cell Activation Markers of 4T1 Breast Cancer in BALB/c Mice
# [8] = tested on: normal human bone marrow hematopoietic stem cells (HSCs)
# Description: We tested 10 reported Arf1 inhibitors (Bill et al., 2011; Boal et al., 2010; Feng et al., 2004; Newton et al., 2006; Ohashi et al., 2012; Sáenz et al., 2009; Sorieul et al., 2011; Viaud et al., 2007), including brefeldin A (BFA), Golgicide A (GCA), LM11, Secin16, Secin H3, Secin B7, Exo1, Exo2, LG8, and LG18, on Drosophila stem cell tumors and normal human bone marrow hematopoietic stem cells (HSCs).
substance,measurement,setting,value
"1H-indolo-5-carbaldehyde 5,6,7,8,9,10-hexahydrocycloocta[4,5]thieno[2,3-d]pyrimidin-4-ylhydrazone [Du 102]",tumor suppressive effect,[1],potency tumor suppressive effect
same,tumor suppressive effect,[1]; listed as Dul02,effective tumor suppressive effects
same,regression of both left- and right-sided tumours,[2]; tables 3 and 4,almost complete regression
same,"tumor size, left side with drug treatment",[2]; Day 0,0
same,tumors on right side after vaccination on left side,[2]; Day 0,0
same,"tumor size, left side with drug treatment",[2]; Day 5,0
same,tumors on right side after vaccination on left side,[2]; Day 5,0
same,"tumor size, left side with drug treatment",[2]; Day 10,2
same,tumors on right side after vaccination on left side,[2]; Day 10,0
same,"tumor size, left side with drug treatment",[2]; Day 15,8
same,"tumor size, left side with drug treatment",[2]; Day 20,57
same,tumors on right side after vaccination on left side,[2]; Day 20,3.7
same,"tumor size, left side with drug treatment",[2]; Day 25,81
same,tumors on right side after vaccination on left side,[2]; Day 25,7.6
same,"tumor size, left side with drug treatment",[2]; Day 30,178
same,tumors on right side after vaccination on left side,[2]; Day 30,14.1
same,4T1 breast carcinoma tumor in Athymic mice,[3]; Day 0,0
same,4T1 breast carcinoma tumor in Athymic mice,[3]; Day 5,21.7
same,4T1 breast carcinoma tumor in Athymic mice,[3]; Day 10,41.3
same,4T1 breast carcinoma tumor in Athymic mice,[3]; Day 15,163.3
same,4T1 breast carcinoma tumor in Athymic mice,[3]; Day 20,385.4
same,4T1 breast carcinoma tumor in Athymic mice,[3]; Day 25,793.2
same,IL-1β,[4],954
same,INFγ,[5],623
same,survival time of myc-on mice,[6],prolonged the survival time
same,anti-tumor effects (liver tumors),[6]; Du102 + Anti-CD4,69.5
same,anti-tumor effects (liver tumors),[6]; Du102 + Anti-CD4/CD8,89.7
same,number of tumors,[6]; Du102 + Anti-PD-1,4.4
same,anti-tumor effects (liver tumors),"[6]; Du102 + Isotype, Table 18",27.5
same,number of tumors,"[6]; Du102 + Isotype, Table 19",42.3
same,liver tumor numbers,"[6]; gavage, 5 per week for 4 weeks, analyzed 10 weeks later",26.7
same,Gzm8 expression,[7],2.3
same,GzmA expression,[7],2.2
same,IL-1β expression,[7],2.2
same,INFγ expression,[7],2.1
same,PD-L1 expression,[7],0.5
same,Perforin expression,[7],2.5
same,toxicity (killing normal HSCs),[8],relatively low toxicity
